From BindingDB's records for doi:10.1016/j.bmcl.2009.03.165 (Gsk, 2009)

Biological target: T1, Beta-secretase 2 (Homo sapiens, UniProt Q9Y5Z0)
T1 sequence (Q9Y5Z0 whole entry): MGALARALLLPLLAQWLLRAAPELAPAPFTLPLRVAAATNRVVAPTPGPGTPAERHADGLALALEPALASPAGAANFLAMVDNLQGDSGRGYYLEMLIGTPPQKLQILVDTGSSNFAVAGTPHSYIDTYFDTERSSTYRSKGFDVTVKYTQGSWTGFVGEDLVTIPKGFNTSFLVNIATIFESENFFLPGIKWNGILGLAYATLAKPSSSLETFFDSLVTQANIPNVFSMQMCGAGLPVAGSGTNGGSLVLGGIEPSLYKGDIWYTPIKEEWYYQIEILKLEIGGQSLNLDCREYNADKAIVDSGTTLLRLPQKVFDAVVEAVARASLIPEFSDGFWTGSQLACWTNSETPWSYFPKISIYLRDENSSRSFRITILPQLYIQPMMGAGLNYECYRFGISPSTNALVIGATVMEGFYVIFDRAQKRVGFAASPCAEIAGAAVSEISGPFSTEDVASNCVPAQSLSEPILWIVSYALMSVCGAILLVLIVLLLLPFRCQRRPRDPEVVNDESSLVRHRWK
Assay: Enzyme Inhibition Assay

IC50: 1410 nM
SMILES: CCNc1cc(C(=O)N[C@@H](Cc2ccccc2)[C@H](O)CNCc2cccc(C(F)(F)F)c2)cc(N2CCCCS2(=O)=O)c1 [BMCL193664 Compound 24]
